Measured values: patent US8691815B2, “Substituted oxindole derivatives, drugs containing said derivatives and the use thereof” (AbbVie Deutschland GmbH & Co. KG, priority 2005, dated 2014)
Where a name gives a salt, the structure may show the parent alone.

The compounds below were run against T1, human V1b receptor (Homo sapiens, UniProt P47901) (assay: Effect on vasopressin-induced calcium increase in cells having a cloned human vasopressin receptor). Conditions: CHO-K1 cells stably transfected with human V1b receptor, Arg-vasopressin 10^-8 M, FLIPR calcium.
T1 construct: expressed in transfected cells; host or cells: CHO-K1
T1 sequence (P47901 1-424): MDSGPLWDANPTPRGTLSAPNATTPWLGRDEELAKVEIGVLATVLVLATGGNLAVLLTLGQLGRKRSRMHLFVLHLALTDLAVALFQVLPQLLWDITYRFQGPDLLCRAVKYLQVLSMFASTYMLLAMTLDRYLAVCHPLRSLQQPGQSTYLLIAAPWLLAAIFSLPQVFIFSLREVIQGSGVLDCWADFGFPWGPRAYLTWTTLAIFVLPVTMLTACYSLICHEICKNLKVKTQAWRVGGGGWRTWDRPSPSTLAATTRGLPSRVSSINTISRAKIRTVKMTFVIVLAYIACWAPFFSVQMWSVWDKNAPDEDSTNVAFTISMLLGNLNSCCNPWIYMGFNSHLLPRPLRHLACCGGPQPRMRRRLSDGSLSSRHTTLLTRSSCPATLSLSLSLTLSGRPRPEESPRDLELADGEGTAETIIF
Type: cell-based
Description: Effect on Vasopressin-induced Calcium Increase in Cells Having a Cloned Human Vasopressin Receptor The functional activity of the test substances was investigated on CHO-K1 cells which were stably transfected with the human V1b receptor. 50 000 cells were seeded in each well of a microtiter plate with 96 wells and incubated in culture medium in a saturated water vapor atmosphere with 5% CO2 at 37° C. overnight. The culture medium consisted of DMEM/Nut Mix F12 with Glutamax I (from Invitrogen), 10% fetal calf serum, 100 units/ml penicillin, 100 μg/ml streptomycin and 800 μg/ml Geneticin. The following day, the cells were washed with culture medium and loaded with a fluorescent dye for calcium in accordance with the manufacturer's statements (Ca^++-Plus-Assay Kit, Molecular Devices). The cells were loaded in the presence of probenzide (1 vol %). The test substances were diluted with culture medium (final concentration 10^−10 to 10^−5M) and incubated with the dye-loaded cells at room temperature for 15 minutes. The Arg-vasopressin (10^−8M) was then added and the maximum fluorescence signal was determined using a FLIPR-96 measuring instrument (Molecular Devices). Concentration-effect plots were constructed using nonlinear regression algorithms (GraphPad Prism 3.0). Kb values were calculated from IC50 values by the method of Cheng and Prusoff (Kb=IC50/1+L/EC50).

| Compound | functional antagonist of the human vasopressin V1b receptor |
| --- | --- |
| COc1ccc(S(=O)(=O)N2C(=O)C(c3ccc(CN4CCCC4)cc3OC)(N3CCC[C@H]3C(=O)N(C)C)c3cc(Cl)ccc32)cc1 (single isomer, unassigned) [Example 2] | functional antagonist |

These compounds were tested against T2, human vasopressin V1b receptor (Homo sapiens, UniProt P47901) (assay: Vasopressin V1b receptor binding assay). Conditions: membranes from CHO-K1 cells with stably expressed human V1b receptors, displacement of 1.5 nM 3H-AVP.
T2 construct: expressed in transfected cells; host or cells: CHO-K1 (cell line hV1b-3H2_CHO), membrane preparation
T2 sequence (P47901 1-424): T1 sequence (P47901 1-424)
Summary of the method: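 Membranes were incubated with radioligand for 60 min at room temperature in 50 mM Tris, 10 mM MgCl2, 0.1% BSA, pH 7.4, with 2% DMSO final. Nonspecific binding was defined with 1 uM AVP. Bound ligand was collected by GF/B filtration and counted by scintillation, and binding parameters were derived by nonlinear regression.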

| Compound | Ki [nM] |
| --- | --- |
| COc1ccc(S(=O)(=O)N2C(=O)C(c3ccc(CN4CCCC4)cc3OC)(N3CCC[C@H]3C(=O)N(C)C)c3cc(Cl)ccc32)cc1 (single isomer, unassigned) [Example 2] | < 1 |
| COc1ccc(S(=O)(=O)N2C(=O)C(c3cc(CN4CCOCC4)ccc3OC)(N3CCC[C@H]3C(=O)N(C)C)c3cc(Cl)ccc32)cc1 (stereo partly drawn) [Example 21, (S)-1-[5-Chloro-1-(4-methoxybenzenesulfonyl)-3-(2-methoxy-5-morpholin-4-yl-methylphenyl)-2-oxo-2,3-dihydro-1H-indol-3-yl]pyrrolidine-2-dimethylcarboxamide, trifluoroacetic acid salt] | < 1 |
| COc1ccc(S(=O)(=O)N2C(=O)C(c3ccc(CN(C)CCN(C)C)cc3OC)(N3CCC[C@H]3C(=O)N(C)C)c3cc(Cl)ccc32)c(OC)c1 (stereo partly drawn) [Example 12, (S)-1-[5-Chloro-1-(2,4-dimethoxybenzenesulfonyl)-3-(4-{[(2-dimethylaminoethyl)-methylamino]methyl}-2-methoxyphenyl)-2-oxo-2,3-dihydro-1H-indol-3-yl]pyrrolidine-2-dimethylcarboxamide] | 1 to 10 |
| COc1cc(CN2CCN(C)CC2)ccc1C1(N2CCC[C@H]2C(=O)N(C)C)C(=O)N(S(=O)(=O)c2ccc(F)cc2)c2ccc(Cl)cc21 (stereo partly drawn) [Example 74, (S)-1-{5-Chloro-1-(4-fluorobenzenesulfonyl)-3-[2-methoxy-4-(4-methylpiperazin-1-yl-methyl)phenyl]-2-oxo-2,3-dihydro-1H-indol-3-yl}pyrrolidine-2-dimethylcarboxamide, trifluoroacetic acid salt] | < 1 |
| COc1ccc(S(=O)(=O)N2C(=O)C(c3ccc(CN4CCCC4)cc3OC)(N3CCC[C@H]3C(=O)N(C)C)c3ccccc32)cc1 (stereo partly drawn) [Example 91, (S)-1-[1-(4-Methoxybenzenesulfonyl)-3-(2-methoxy-4-pyrrolidin-1-ylmethylphenyl)-2-oxo-2,3-dihydro-1H-indol-3-yl]pyrrolidine-2-dimethylcarboxamide, trifluoroacetic acid salt] | 1 to 10 |
| CCCNCc1ccc(OC)c(C2(N3CCC[C@H]3C(=O)N(C)C)C(=O)N(S(=O)(=O)c3ccc(C#N)cc3)c3ccc(Cl)cc32)c1 (stereo partly drawn) [Example 100, (S)-1-[5-Chloro-1-(4-cyanobenzenesulfonyl)-3-(2-methoxy-5-propylaminomethyl-phenyl)-2-oxo-2,3-dihydro-1H-indol-3-yl]pyrrolidine-2-dimethylcarboxamide, trifluoroacetic acid salt] | < 1 |
| COc1ccc(S(=O)(=O)N2C(=O)C(c3ccc(CN4CCNCC4)cc3OC)(N3CCC[C@H]3C(=O)N(C)C)c3cc(Cl)ccc32)cc1 (stereo partly drawn) [Example 79, (S)-1-[5-Chloro-1-(4-methoxybenzenesulfonyl)-3-(2-methoxy-4-piperazin-1-yl-methylphenyl)-2-oxo-2,3-dihydro-1H-indol-3-yl]pyrrolidine-2-dimethylcarboxamide, trifluoroacetic acid salt] | < 1 |
| CNCc1ccc(OC)c(C2(N3CCC[C@H]3C(=O)N(C)C)C(=O)N(S(=O)(=O)c3ccc(C#N)cc3)c3ccc(Cl)cc32)c1 (stereo partly drawn) [Example 102, (S)-1-[5-Chloro-1-(4-cyanobenzenesulfonyl)-3-(2-methoxy-5-methylaminomethyl-phenyl)-2-oxo-2,3-dihydro-1H-indol-3-yl]pyrrolidine-2-dimethylcarboxamide, trifluoroacetic acid salt] | 1 to 10 |
| COc1ccc(CN2CCCC2)cc1C1(N2CCC[C@H]2C(=O)N(C)C)C(=O)N(S(=O)(=O)c2ccc(C#N)cc2)c2ccc(Cl)cc21 (stereo partly drawn) [Example 96, (S)-1-[5-Chloro-1-(4-cyanobenzenesulfonyl)-3-(2-methoxy-5-pyrrolidin-1-ylmethyl-phenyl)-2-oxo-2,3-dihydro-1H-indol-3-yl]pyrrolidine-2-dimethylcarboxamide] | < 1 |
| COc1ccc(CN2CCN(C)CC2)cc1C1(N2CCC[C@H]2C(=O)N(C)C)C(=O)N(S(=O)(=O)c2ccc(C#N)cc2)c2ccc(Cl)cc21 (stereo partly drawn) [Example 97, (S)-1-{5-Chloro-1-(4-cyanobenzenesulfonyl)-3-[2-methoxy-5-(4-methylpiperazin-1-yl-methyl)phenyl]-2-oxo-2,3-dihydro-1H-indol-3-yl}pyrrolidine-2-carboxylic acid dimethylamide, trifluoroacetic acid salt] | < 1 |
| CCN(C)Cc1ccc(C2(N3CCC[C@H]3C(=O)N(C)C)C(=O)N(S(=O)(=O)c3ccc(OC)cc3)c3ccc(Cl)cc32)c(OC)c1 (stereo partly drawn) [Example 84, (S)-1-[5-Chloro-3-{4-[(ethylmethylamino)methyl]-2-methoxyphenyl}-1-(4-methoxy-benzenesulfonyl)-2-oxo-2,3-dihydro-1H-indol-3-yl]pyrrolidine-2-dimethylcarboxamide, trifluoroacetic acid salt] | < 1 |
| COc1ccc(S(=O)(=O)N2C(=O)C(c3cc(CN4CCCCC4)ccc3OC)(N3CCC[C@H]3C(=O)N(C)C)c3cc(Cl)ccc32)c(OC)c1 (stereo partly drawn) [Example 26, (S)-1-[5-Chloro-1-(2,4-dimethoxybenzenesulfonyl)-3-(2-methoxy-5-piperidin-1-yl-methylphenyl)-2-oxo-2,3-dihydro-1H-indol-3-yl]pyrrolidin-2-dimethylcarboxamide trifluoroacetic acid salt] | < 1 |
| COc1cc(CN2CCN(C)CC2)ccc1C1(N2CCC[C@H]2C(=O)N(C)C)C(=O)N(S(=O)(=O)c2ccc(C#N)cc2)c2ccc(Cl)cc21 (stereo partly drawn) [Example 80, (S)-1-{5-Chloro-1-(4-cyanobenzenesulfonyl)-3-[2-methoxy-4-(4-methylpiperazin-1-ylmethyl)phenyl]-2-oxo-2,3-dihydro-1H-indol-3-yl}pyrrolidine-2-carboxylic acid dimethylamide, trifluoroacetic acid salt] | < 1 |
| COc1cc(CN2CCOCC2)ccc1C1(N2CCC[C@H]2C(=O)N(C)C)C(=O)N(S(=O)(=O)c2ccc(F)cc2)c2ccc(Cl)cc21 (stereo partly drawn) [Example 77, (S)-1-[5-Chloro-1-(4-fluorobenzenesulfonyl)-3-(2-methoxy-4-morpholin-4-ylmethyl-phenyl)-2-oxo-2,3-dihydro-1H-indol-3-yl]pyrrolidine-2-dimethylcarboxamide, trifluoroacetic acid salt] | 10 to 100 |
| COc1ccc(S(=O)(=O)N2C(=O)C(c3cc(CN(C)CCN(C)C)ccc3OC)(N3CCC[C@H]3C(=O)N(C)C)c3cc(Cl)ccc32)cc1 (stereo partly drawn) [Example 22, (S)-1-[5-Chloro-3-(5-{[(2-dimethylaminoethyl)methylamino]methyl}-2-methoxy-phenyl)-1-(4-methoxybenzenesulfonyl)-2-oxo-2,3-dihydro-1H-indol-3-yl]pyrrolidine-2-dimethylcarboxamide, trifluoroacetic acid salt] | < 1 |
| (S)-1-[3-(4-Aminomethyl-2-methoxyphenyl)-5-chloro-1-(4-fluorobenzenesulfonyl)-2-oxo-2,3-dihydro-1H-indol-3-yl]pyrrolidine-2-dimethylcarboxamide, trifluoroacetic acid salt [Example 75] | 10 to 100 |
| COCCN(C)Cc1ccc(C2(N3CCC[C@H]3C(=O)N(C)C)C(=O)N(S(=O)(=O)c3ccc(OC)cc3)c3ccc(Cl)cc32)c(OC)c1 (stereo partly drawn) [Example 89, (S)-1-[5-Chloro-1-(4-methoxybenzenesulfonyl)-3-(2-methoxy-4-{[(2-methoxyethyl)-methylamino]methyl}phenyl)-2-oxo-2,3-dihydro-1H-indol-3-yl]pyrrolidine-2-dimethyl-carboxamide, trifluoroacetic acid salt] | < 1 |
| COc1ccc(S(=O)(=O)N2C(=O)C(c3ccc(CN4CCN(C)CC4)cc3OC)(N3CCC[C@H]3C(=O)N(C)C)c3cc(Cl)ccc32)cc1 (stereo partly drawn) [Example 69, (S)-1-{5-Chloro-1-(4-methoxybenzenesulfonyl)-3-[2-methoxy-4-(4-methylpiperazin-1-ylmethyl)phenyl]-2-oxo-2,3-dihydro-1H-indol-3-yl}pyrrolidine-2-dimethylcarboxamide, trifluoroacetic acid salt] | < 1 |
